Laboratory results as given in patent publication US20030087263A1, “Method of screening remedy for cancer with the use of interaction domain of p53 and mortalin” (priority 1999, published 2003).
Where no end group is shown, it is not given here.

Legend:
COS7 cells = test: localization of GFP-fused p53 fragments expressed in COS7 cells; assay type: cell-based; conditions: COS7 cells transfected with GFP-fused protein
Excerpt: (B) A photograph showing the green fluorescence of GFP in COS7 cells transfected with (a) GFP alone, (b) GFP-p53 (amino acid residues 312-352), and (c) GFP-p53 (amino acid residues 312-319).
Since the in vitro translated product of a 43 kDa truncated p53, lacking the C terminus, lacks the ability to bind to mortalin protein as described in Example 1, it was presumed that this deleted region contains the region that is related to the binding to mortalin.

mortalin = test: immunoprecipitation of GFP-p53 fragments using anti-mortalin antibody; assay type: binding; conditions: transfected cells, probed with anti-GFP antibody
Excerpt: (C) Mortalin was immunoprecipitated from cells transfected with GFP-tagged p53 fragments with polyclonal anti-mortalin antibodies, and was visualized with monoclonal antibodies. Immunocomplexes (Mot-IC) were also probed with monoclonal anti-GFP antibody to determine whether the p53 fusion proteins co-precipitate with mortalin (left panel). […] Bands corresponding to the IgG heavy and light chains are also detected on Mot-IC gel.

[1] = system: binding between p53 and mortalin (amino acid residues 1-435 or 105-435); test: competitive inhibition assay of p53-mortalin binding; conditions: increasing amounts of competitor peptide
Excerpt: (C) The increase of the amounts of the peptide (comp. pep) corresponding to the mortalin amino acid residues 253-282 to be added reduced the […] the mortalin amino acid residues 1-435 (mot 1-435) and the peptide corresponding to mortalin amino acid residues 105-435 (mot 105-435). p53 was immunoprecipitated with the polyclonal anti-p53 antibody (CM-1) and detected by Western blotting with a monoclonal anti-p53 antibody (PAb 421)) (bands represented with an arrowhead). Co-immunoprecipitated mortalin was detected by Western blotting with anti-His tag antibody (indicated by arrows).
Next, a competitive inhibition assay was performed to confirm the involvement of this peptide of amino acid residues 253-282 in the binding to p53.

[2] = system: p53-dependent transcriptional activation; test: p53 responsive β-gal reporter assay by microinjection into Saos2 cells; assay type: cell-based, human; conditions: for β-Gal Staining: Percent of Blue cells / β-Gal Staining: Blue cells: Saos2, microinjected with pMSV p53 and p53 β-gal rep.
Excerpt: (C) The p53 activity detected for the p53 responsive β-galactosidase reporter construct was inhibited when a plasmid encoding mot-2 (b and i) , mut-11 (d and K), or mutant V16M (f and m) was simultaneously microinjected with the p53 expression plasmid. […] Microinjected cells were visualized by staining with FITC-labeled anti-rabbit IgG (a-g).
Similar results were obtained according to an experiment wherein the above mutant mortalin proteins, temperature-sensitive mutant p53 protein, and p53 responsive β-gal reporter gene pRGCΔfos-lacZ were introduced into a human osteosarcoma cell line Saos2 by microinjection.

[3] = system: p53-dependent transcriptional activation; test: p53-dependent luciferase reporter analysis in p53-/- mouse embryonic fibroblasts; assay type: cell-based; conditions: p53-/- MEF, PG13-luc type reporter, temperature-sensitive p53 at 32.5° C.
Excerpt: After preparing cDNAs that encode mutant mortalin proteins missing each of the functions shown in FIG. 3A and mortalin proteins point mutated at two different amino acid residues between mot-1 and mot-2 according to the method described in Example 1, the cDNAs were used for p53-dependent reporter analysis. Specifically, cells obtained by stable transfection of plasmid […], wherein the firefly luciferase gene has been linked to p53 responsive promoter (having the promoter sequence “[…]” and expresses the gene downstream of that sequence as a result of binding with p53 protein), and temperature-sensitive mutant p53 protein expression vector pMSVp53Val135 into mouse embryonic fibroblasts deficient in functional p53 gene (P53−/−MEF) (see, Wadhwa, R. et al. (1998) J. Biol. Chem. 273, 29586-29591) were transfected with various mortalin mutant protein expression vectors and pRL-CMV, serving as an internal control for standardizing transcription efficiency. After incubation at 32.5° C., which is an allowable temperature for the mutant p53 protein, the luciferase activity was measured.

[4] = target: T1, full-length mouse wild-type p53 (Mus musculus, UniProt P02340); test: in vitro binding assay of mortalin protein and p53 protein (co-immunoprecipitation); conditions: His-tagged recombinant mortalin, in vitro translated 35S-labeled p53, co-precipitation
T1 construct: mRNA encoding full-length mouse wild-type p53; made in house; host or cells: in vitro translation in rabbit reticulocyte lysate (Stratagene)
Procedure: After preparing mRNA encoding full-length mouse wild-type p53 with a template of pSP65/p53 plasmid (Braithwaite, A. W. and Jenkins, J. R. (1989) J. Virol. 63, 1792-1799) using Transprobe T Kit (Pharmacia), [^35S]-labeled p53 protein was obtained by subjecting to in vitro translation reaction using rabbit reticulocyte lysate (Stratagene) for 1 hour in the presence of L-[^35S]methionine. After separating the translation products by SDS-PAGE, the translation reaction products were confirmed by autoradiography. The in vitro translated p53 protein was purified by immunoprecipitation with anti-p53 antibodies (PAb 421, PAb 1620 (Calbiochem), and PAb 122 (Boehringer-Mannheim)), and was used in the subsequent in vitro binding assays described below.
After preparing cDNAs encoding the recombinant mortalin protein (full-length) and various deletion mutants (described later) by PCR and converting them to a form to encode a His-tagged protein by inserting the cDNAs into pQE30 vector (Qiagen) the cDNAs were introduced into E. coli for expression. The resulting bacterial extracts were purified with Ni-NTA agarose (Qiagen). […] Then, p53 protein was detected by autoradiography; mortalin and deletion mutants thereof were detected by Western blotting with anti-His antibody and ECL-chemiluminescence (Amersham).

T1 sequence (P02340 whole entry): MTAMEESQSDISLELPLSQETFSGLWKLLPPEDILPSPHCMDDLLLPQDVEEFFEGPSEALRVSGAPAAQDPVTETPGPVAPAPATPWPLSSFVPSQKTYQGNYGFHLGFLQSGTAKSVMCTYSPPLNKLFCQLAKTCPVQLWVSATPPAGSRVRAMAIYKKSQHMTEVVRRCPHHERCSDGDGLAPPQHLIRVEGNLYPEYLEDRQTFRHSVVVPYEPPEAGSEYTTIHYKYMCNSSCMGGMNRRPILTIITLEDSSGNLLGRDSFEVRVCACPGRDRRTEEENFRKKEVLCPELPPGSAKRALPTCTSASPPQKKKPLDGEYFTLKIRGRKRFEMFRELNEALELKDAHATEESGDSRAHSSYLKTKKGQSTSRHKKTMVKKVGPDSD

GFP-p53 (amino acid residues 312-352): green fluorescent protein fused with p53 amino acid residues 312-352 ({GFP}-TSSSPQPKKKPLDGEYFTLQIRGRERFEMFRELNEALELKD; UniProt P04637 312-352, looked up, fragment)
expressed proteins localized to the vicinity of the nucleus (COS7 cells): about 90% | binding to mortalin (co-precipitation) (mortalin): confirmed to bind to mortalin

GFP-p53 (amino acid residues 372-390): green fluorescent protein fused with p53 amino acid residues 372-390 ({GFP}-KKGQSTSRHKKLMFKTEGP; UniProt P04637 372-390, looked up, fragment)
binding to mortalin (co-precipitation) (mortalin): no precipitation

253-282: peptide corresponding to the mortalin amino acid residues 253-282
inhibition of binding between p53 and mortalin [1]: inhibited binding between p53 and mortalin

mot-1: mortalin protein cloned from normal mouse cells; differs from mot-2 by two amino acids (residues 618 and 624)
β-Gal Staining: Percent of Blue cells [2]: 88% | β-Gal Staining: Blue cells ([2]; with Anti-mot IgG): 83 | β-Gal Staining: Percent of Blue cells ([2]; with Anti-mot IgG): 90% | β-Gal Staining: Blue cells ([2]; number of blue cells among transfected cells): 52 | effect on p53-dependent transcriptional activation (β-gal reporter) ([2]; Saos2, microinjection): did not have a significant effect | inhibition of p53-dependent transcriptional activation (luciferase activity) [3]: did not have any effect | binding with full-length p53 protein [4]: specifically bound
